In US5663207A, “Gem-dichlorocyclopropanes as antitumor agents” (priority 1995, dated 1997):
Like-named read-outs stand apart in the source and are kept apart here.

What was measured:
[1] = system: MCF-7 human breast cancer cells; assay: In vitro MCF-7 human breast cancer cell growth inhibition assay; assay type: cell-based; conditions: for inhibition at 1 µM: Homo sapiens
Source text: (§1) The biological evaluation of the test compounds consisted of the in vitro rat cytosolic estradiol receptor binding assay, the in vivo immature mouse uterotrophic (estrogenic) and antiuterotrophic (antiestrogenic) assays, and the in vitro suppression of the proliferation of the ER positive MCF-7 human breast cancer cell line. Estradiol (pure agonist), TAM (agonist in mice and antagonist in MCF-7), MER 25 (pure antagonist) and Analog II (antagonist in mice) were used in the assay as standards.
MCF-7 (estrogen-receptor positive) human breast cancer cells (obtained from the Michigan Cancer Foundation, Detroit, Mich.) were grown at 37° C. in 75 cm^2 tissue culture (T-75) flasks, as monolayer cultures in RPMI 1640 phenol red-free media supplemented with 2 mM L-glutamine, gentamicin (50 μg/mL), penicillin (100 units/mL), streptomycin (100 μg/mL ) and calf serum (5%). Cultures were grown in an incubator 37° C. in a humid 5% CO2 atmosphere, and fed on alternate days. Expotential growth was maintained by subculturing at eight day intervals when the cells per T-75 flask reached 10 to 12×10^6 cells. Cells were trypsinized, washed and plated in multiwell plates at a density of 5×10^4 cells/well in 3 mL of RPMI 1640 media. The cells were allowed to attach and were in logarithmic growth when the test compounds were added. The test compounds (10^-6 M) in the presence or absence of a 10-fold lower dose of estradiol were dissolved in a polyethylene glycol 400: ethanol (55:45) mixture and added in the culture media in duplicate. Control samples received vehicle alone at the same concentration used in the treatment groups. The final concentration of the vehicle mixture was 0.1% of the incubation media. Cell growth was measured on alternate days using the hemocytometric trypan blue exclusion method. Percent inhibition of MCF-7 cells was calculated as the ratio of the control mean cell count per well minus the treatment group mean cell count per well to the control mean cell count per well, multiplied by 100.
^b % MCF7 inhibition was calculated as follows: […]
Thirteen compounds, Analog II, TAM, and MER 25 were tested for their antiproliferative activity in the MCF-7 human breast cancer cell line (Table II). Compounds were tested at a concentration of 10^-6 M in the presence or absence of 10^-7 M estradiol to assess their ability to alter the growth of the calls (Table II). The 10^-6 M concentration was selected since it was reported that the inhibition of the MCF-7 cells by antiestrogens and TAM occurred either at that concentration or less, and were both selective and estrogen receptor specific. Concentrations of antiestrogens greater than 5×10^-6 M were reported to have nonspecific cytotoxic effects (BRIAND, P. AND […], A. E. (1984), "Effect of estrogen and antiestrogen on the human breast cancer cell line MCF-7 adapted to growth at low serum concentration", Cancer Research, 44, 1114).

[2] = system: Immature Swiss-Webster female mice (uterine weight); assay: Uterotrophic assay for estrogenic activity in immature mice; assay type: in vivo, mouse (Swiss-Webster); conditions: for uterine weight response (estrogenic activity, in words): doses of 5, 25 and 100 μg (total dose); for uterotrophic response on retest (in words): retested at 100, 250, and 500 μg
Source text: The biological evaluation of the test compounds consisted of the in vitro rat cytosolic estradiol receptor binding assay, the in vivo immature mouse uterotrophic (estrogenic) and antiuterotrophic (antiestrogenic) assays, and the in vitro suppression of the proliferation of the ER positive MCF-7 human breast cancer cell line.
(§2) Vital-free immature female Swiss-Webster mice were obtained at 17-19 days of age from Sasco weighing 8-10 g, and were used in the uterotrophic and antiuterotrophic assays. Immature female Sprague-Dawley rats, obtained at 17-19 days of age from Sasco, weighing 28-33 g, were used as sources of uteri for the estradiol receptor binding assay. Animals were housed in wire topped polycarbonate cages at six animals per cage, with the environment controlled at 25° C. and a 12 h light/dark cycle. The animals received a diet of Wayne Lab Blox rodent chow and tap water ad libitum.
Immature Swiss-Webster female mice (8-15 g) at 17-19 days of age were used. Estradiol was used in the dosage range of […] (total dose) as the assay standard. Each cyclopropyl analogue was examined at doses of 5, 25, and 100 μg (total dose). […] Estrogenic activity was measured as an increase in uterine weight produced by each test compound.

estrogen receptor = biological target: T1, estrogen receptor (Rattus norvegicus, UniProt P06211); assay: Receptor binding assay: displacement of [3H]-estradiol from rat uterine cytosol; design: species or system rat (Sprague-Dawley); conditions: for [3H]-estradiol displacement curve (in words): rat uterine cytosolic estrogen receptor; for RBA (relative binding affinity): relative to estradiol = 100%
T1 construct: ovariectomized rat uterine cytosolic estrogen receptor preparation; from tissue; host or cells: uterine cytosol of ovariectomized Sprague-Dawley rats (immature rats from Sasco are named as uterus source, mature ovariectomized rats)
T1 sequence (P06211 1-600): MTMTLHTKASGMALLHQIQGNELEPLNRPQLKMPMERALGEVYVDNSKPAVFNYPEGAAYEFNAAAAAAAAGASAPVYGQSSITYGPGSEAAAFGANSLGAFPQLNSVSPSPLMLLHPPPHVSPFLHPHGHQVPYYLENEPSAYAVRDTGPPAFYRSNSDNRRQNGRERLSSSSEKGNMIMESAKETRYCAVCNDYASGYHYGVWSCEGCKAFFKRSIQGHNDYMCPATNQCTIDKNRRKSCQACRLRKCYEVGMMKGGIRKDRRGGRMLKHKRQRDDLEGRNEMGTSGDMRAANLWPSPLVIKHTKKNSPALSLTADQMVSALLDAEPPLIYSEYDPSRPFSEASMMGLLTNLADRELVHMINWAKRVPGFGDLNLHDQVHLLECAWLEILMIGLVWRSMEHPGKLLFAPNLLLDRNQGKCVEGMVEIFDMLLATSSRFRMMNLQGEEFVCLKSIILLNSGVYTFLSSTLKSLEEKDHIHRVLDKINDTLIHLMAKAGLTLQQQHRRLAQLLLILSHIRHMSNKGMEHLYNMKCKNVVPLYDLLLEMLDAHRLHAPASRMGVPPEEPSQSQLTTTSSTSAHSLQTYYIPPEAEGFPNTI
Source text: as §1, §2
The RBAs of the test compounds were determined by the displacement of [^3 H]-estradiol in vitro, as described previously (DAY, B. W., […], R. A., JAIN, P., PENTO, J. T., MOUSISSIAN, G. K. AND MEYER, K. L. (1991), "Synthesis and biological evaluation of a series of 1,1-dichloro-2,2,3-triarylcyclopropanes as pure antiestrogens", Journal of Medicinal Chemistry, 34, 842; KORENMAN, S. G. (1969), "Comparative binding affinity of estrogens and its relation to estrogenic potency", Steroid, 13, 163). Mature female Sprague-Dawley rats were ovariectomized at least two weeks prior to the receptor binding experiment. Each test compound was assayed at three concentrations in duplicate over a range of 10^-3 -10^-5 M and 10^-6 -10^-8 M for the estradiol standard. The non-specific binding was determined by a parallel incubation of each compound with the addition of diethylstilbestrol to give a final concentration of 2×10^-5 M DES which was sufficient to saturate all the estrogen receptors present in the cytosolic fraction. Specific displacement for each compound was determined by subtraction of nonspecific displacement from total displacement. The [^3 H]-estradioldisplacement curve for each test compound was determined by linear repression analysis and plotted graphically. The relative binding affinity for each compound was calculated (BLISS, C.I. (1967), "The statistics in biology", McGraw Hill, Inc: New York).
^a Determined by competitive radiometric binding assay with rat
uterine cytosol as a source of receptor, [^3 H]estradiol as tracer,
and dextrancoated charcoal as absorbant for free ligand.
^c Binding affinities are expressed relative to that of estradiol =
100% (RBA = relative binding affinity) and are the average of duplicate
determinations minus nonspecific binding.
The relative binding affinities (RBAs), as determined by the competitive radiometric binding assay and measured by [^3 H]-estradiol displacement from the ovariectomized rat uterine cytosolic estrogen receptor preparation, after subtracting non-specific receptor binding, were calculated for all of the synthesized target compounds, TAM, MER 25, Analog II, and estradiol. The displacement curves were plotted as percent receptor-bound [^3 H]-estrodiol versus concentration of test compounds (not shown) and the receptor binding affinity of each compound is presented in Table II.

[3] = MCF7, 10^-6 M, versus control mean cell count, read-out: MCF-7 Inhibition
[4] = MCF7, 10^-6 M, printed as dash with footnote g, read-out: MCF-7 Inhibition
[5] = average of duplicate determinations minus nonspecific binding
[6] = MCF7, read-out: MCF-7 Inhibition

| Structure (SMILES) | effect on MCF-7 cell growth (in words) ([1]; 10^-6 M) | inhibition at 1 µM [1, 3] | uterine weight response (estrogenic activity, in words) [2] | RBA ranking (in words) (estrogen receptor; among the compounds tested) | [3H]-estradiol displacement curve (in words) (estrogen receptor) | RBA (relative binding affinity) (estrogen receptor; given as dash with footnote e) | inhibition at 1 µM [1, 4] | uterotrophic response on retest (in words) [2] | RBA (relative binding affinity) (estrogen receptor; [5]) | inhibition at 1 µM [1, 6] |
| --- | --- | --- | --- | --- | --- | --- | --- | --- | --- | --- |
| COc1ccc([C@H]2[C@@H](c3ccccc3)C2(Cl)Cl)cc1 (relative stereo) [Compound 8, 1,1-Dichloro-cis-2-(p-methoxyphenyl)-3-phenylcyclopropane] | inhibited cell growth | 25.3% | well below the control group | lowest RBA | dose-dependent displacement curves with shallower slopes than their acetoxy and phenolic analogues | --^e (Less than 0.01%.) |  |  |  |  |
| COc1ccc([C@H]2[C@H](c3ccccc3)C2(Cl)Cl)cc1 (relative stereo) [Compound 16, 1,1-Dichloro-trans-2-(p-methoxyphenyl)-3-phenylcyclopropane] | did not |  | slight increase in uterine weight at doses of 25 and 100 μg |  | dose-dependent displacement curves with shallower slopes than their acetoxy and phenolic analogues | --^e (Less than 0.01%.) | < 10% | no significant uterotrophic responses |  |  |
| CC(=O)Oc1ccc([C@H]2[C@H](c3ccccc3)C2(Cl)Cl)cc1 (relative stereo) [Compound 18, 1,1-Dichloro-trans-2-(p-acetoxyphenyl)-3-phenylcyclopropane] | did not |  |  |  |  |  | < 10% |  | 0.25% |  |
| COc1ccc([C@@H]2[C@H](c3ccc(OC)cc3)C2(Cl)Cl)cc1 [Compound 14, 1,1-Dichloro-cis-2,3-bis-(p-methoxyphenyl) cyclopropane] | inhibited cell growth | 37% |  |  | dose-dependent displacement curves with shallower slopes than their acetoxy and phenolic analogues |  |  |  | 0.01% |  |
| COc1ccc(C2(c3ccc(OC)cc3)CC2(Cl)Cl)cc1 [Compound 23, 1,1-Dichloro-2,2-bis-(p-methoxyphenyl)cyclopropane] | inhibited cell growth |  | well below the control group |  | dose-dependent displacement curves with shallower slopes than their acetoxy and phenolic analogues | --^e (Less than 0.01%.) |  |  |  | 30% |
| COc1ccc(C2(c3ccc(O)cc3)CC2(Cl)Cl)cc1 (stereo not shown) [Compound 24, 1,1-Dichloro-2-(p-methoxyphenyl)-2-(p-hydroxyphenyl)cyclopropane] | only 23 inhibited cell growth |  |  |  |  |  |  |  | 0.02% | < 10% |
| Oc1ccc(C2(c3ccc(O)cc3)CC2(Cl)Cl)cc1 [Compound 25, 1,1-Dichloro-2,2-bis-(p-hydroxyphenyl) cyclopropane] | only 23 inhibited cell growth |  | well below the control group |  |  |  |  |  | 0.04% | < 10% |
| COc1ccc(C2(c3ccc(OC)cc3)C(Cl)(Cl)C23CCCCC3)cc1 [Compound 29, 1,1-Dichloro-2,2-bis-(p-methoxyphenyl)-spiro[2.5]octane] | active inhibitors of cell growth |  | slight increase in uterine weight at doses of 25 and 100 μg |  | dose-dependent displacement curves with shallower slopes than their acetoxy and phenolic analogues | --^e (Less than 0.01%.) |  | no significant uterotrophic responses |  | 37% |
| CC(=O)Oc1ccc(C2(c3ccc(OC(C)=O)cc3)C(Cl)(Cl)C23CCCCC3)cc1 [Compound 31, 1,1-Dichloro-2,2-bis-(p-acetoxyphenyl)-spiro[2.5]octane] |  |  | well below the control group |  |  |  |  |  | 0.05% | < 10% |
